Test results as given in patent publication US7687054B2, “Biocompatible compounds for sustained release pharmaceutical drug delivery systems” (3M Innovative Properties Company, priority 1997, dated 2010).
Where a name gives a salt, the structure may show the parent alone. Read-outs that look alike come from different tables or passages of the source.

Legend:
[1] = Glass transition temperature (Tg) by modulated DSC; format: physicochemical; conditions: PLA/Drug mole/mole ratio 0 (drug alone)
Experimental: (§1) Thermal properties (glass transition, melting, and degradation points; Tg, Tm, Tdeg) were determined utilizing a modulated differential scanning calorimeter (DSC) TA Instruments, New Castle, Del. A linear heating rate of 5° C./minute was applied, with a perturbation amplitude of ±1° C. every 60 seconds. […] The glass transition temperatures (Tg) reported were taken at the midpoint in the change in heat capacity over the step transition, and were evaluated using the reversing signal curve.
It will also be recognized that other biologically acceptable molecules (e.g., excipients) which are not the active agent, may be added to improve the matrix material's properties.

[2] = Degradation temperature by modulated DSC (thermal stability)
Experimental: as §1
The salts were prepared by mixing suitable solutions (e.g., acetone, chloroform, methanol) of the drug and PLA in the desired ratio, followed by evaporation and extensive drying under high vacuum to remove all traces of solvent. […] Bioavailability frequently correlates with the water solubility of the drug-complex. The water solubility of the PHAs is dependent on the molecular weight and the nature of the end groups.
The molecular weight of the acylated polymer necessary to provide an insoluble salt is dependent both on the nature of the drug and the end-group used. It will be recognized that the characteristics (MW, distribution, chemical nature, endgroups, etc.) of the polymer counter-ion will be important to the ultimate pharmacokinetics of the drug.

[3] = test system: antigen (ovalalbumin) challenged guinea pigs; assay: Guinea pig early phase anaphylactic response test (pulmonary dynamic compliance); format: in vivo, male Hartley guinea pigs; conditions: inhalation
Experimental: Pat. […] Pat. […] Typical inhalation exposure systems were comprised of an aerosol generator, e.g., an MDI, a 150 ml aerosol expansion chamber, and a trachea cannula. Each guinea pig received 4 actuations containing 32 ug drug/actuation. The guinea pigs were antigen (ovalalbumin) challenged at varied times and pulmonary dynamic compliance was tested using a Buxco pulmonary mechanics analyzer (Buxco Electronics, Sharon Conn.) according to the method of Amdur and Mead (The American Journal of Physiology, Vol. 92, pp. 364-368 (1958)).

[4] = test system: tumor necrosis factor (TNF); assay: TNF levels in lung lavage and serum after inhalation of IMQ MDI formulations; format: in vivo, mouse; conditions: mice
Experimental: Typically, the animals were exposed to 20 actuations per minute for 25 minutes of an MDI generated 2 micron average MMAD aerosol. Lung lavage and bleeding of the exposed mice, were performed by standard methods known to those skilled in the art and tumor necrosis factor (TNF) analyses were performed by an ELISA method specific for TNF in the mouse (Genzyme Immunobiologicals, Cambridge, Mass.). TNF is a marker for this drug's activity. Pulmonary therapy application of IMQ prefers drug activity localized in the lung. Therefore, it was desirable to maintain high levels of drug in the lung and minimize systemic drug. However, this formulation and method could also clearly be used to provide long term release of IMQ or analogous compounds for systemic applications. The lavage numbers are measurements of TNF levels in the lung while the serum levels measure systemic TNF levels.

[5] = PLA/Drug molar ratio 0 (drug alone)

Molecule Albuterol sulfate has a Tg [1] of 49 °C.

In the case of CN(C)[C@@H]1C(O)=C(C(N)=O)C(=O)[C@@]2(O)C(O)=C3C(=O)c4c(O)cccc4[C@@](C)(O)[C@H]3C[C@@H]12 [Tetracycline], the “Degradation Temperature” value [2, 5] is reported as 179 °C.

With acetyl-poly (L-lactic acid) [Example 7] the “Degradation Temperature” value [2] was >225 °C.

For CCN(CC)CC(=O)Nc1c(C)cccc1C [Lidocaine], the “Degradation Temperature” value [2, 5] was 159 °C and the Tg [1] was “none”.

CN(C)[C@@H]1C(O)=C(C(N)=O)C(=O)[C@@]2(O)C(O)=C3C(=O)c4c(O)cccc4[C@@](C)(O)[C@H]3C[C@@H]12 [Tetracycline HCl] gave a Tg [1] of 50.5 °C.

For CCC(CC)N(O)C(=O)Nc1ccccc1 [Example 5LO], the “Percent Inhibition of Bronchoconstriction” value (“Percent Inhibition” for short) ([3]; challenge 15 minutes after dosing) was 67%, the “Percent Inhibition” value ([3]; challenge 30 minutes after dosing) was 48% and the “Percent Inhibition” value ([3]; challenge 60 minutes after dosing) was 4%.

CC(C)(C)NCC(O)c1ccc(O)c(CO)c1 (stereo not drawn) [Albuterol base] gave a Tg [1] of 48.9 °C.

In the case of Cc1nc2c(N)nc3ccccc3c2n1CC(C)(C)O [IMQ alone], the “TNF level, Lavage” value ([4]; 0 hours after dosing) is reported as 40 pg/mL, the “TNF level, Serum” value ([4]; 0 hours after dosing) is reported as 13 pg/mL and the “TNF level, Lavage” value ([4]; 1 hour after dosing) is reported as 105 pg/mL. The “TNF level, Serum” value ([4]; 1 hour after dosing) was 6 pg/mL, the “TNF level, Lavage” value ([4]; 2 hours after dosing) was 213 pg/mL and the “TNF level, Serum” value ([4]; 2 hours after dosing) was 193 pg/mL. The “TNF level, Lavage” value ([4]; 4 hours after dosing) was 144 pg/mL and the “TNF level, Serum” value ([4]; 4 hours after dosing) was 577 pg/mL.

With CCN(CC)CC(=O)Nc1c(C)cccc1C [Lidocaine HCl] the Tg ([1]; HCl) was 30.7 °C.

With [H]/N=C(\N/C(=N/[H])NCCCCCCNC(=N)NC(=N)Nc1ccc(Cl)cc1)Nc1ccc(Cl)cc1 [Chlorhexidine base] the “Degradation Temperature” value [2, 5] was >225 °C and the Tg [1] was 38.5 °C.
